In US9017681B2, “Adenylyl cyclases as novel targets for antibactrial interventions” (Cornell Research Foundation, Inc., priority 2007, dated 2015):
Like-named read-outs stand apart in the source and are kept apart here.

Molecular target: T1, human sAC (Homo sapiens, UniProt Q96PN6)
T1 construct: made in house
T1 sequence (Q96PN6 1-469 limits assumed): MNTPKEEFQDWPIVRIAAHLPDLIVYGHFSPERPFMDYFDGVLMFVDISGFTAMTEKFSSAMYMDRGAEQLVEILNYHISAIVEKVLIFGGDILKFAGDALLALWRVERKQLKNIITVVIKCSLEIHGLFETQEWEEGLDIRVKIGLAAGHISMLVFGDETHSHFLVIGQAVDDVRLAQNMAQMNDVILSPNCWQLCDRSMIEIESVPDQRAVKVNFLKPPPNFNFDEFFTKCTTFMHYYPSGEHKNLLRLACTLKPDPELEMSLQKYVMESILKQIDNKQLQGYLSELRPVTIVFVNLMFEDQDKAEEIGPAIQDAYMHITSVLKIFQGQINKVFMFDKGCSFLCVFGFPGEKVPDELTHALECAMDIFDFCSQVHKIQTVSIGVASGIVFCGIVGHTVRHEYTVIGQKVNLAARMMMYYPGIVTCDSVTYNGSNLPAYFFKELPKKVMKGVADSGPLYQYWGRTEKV
Experiment: in vitro adenylyl cyclase assay with purified human sAC protein (cAMP by Correlate-EIA)
Format: biochemical
Description: Purified human sAC protein was used in an in vitro adenylyl cyclase assay. Purification of the protein is described in detail in Litvin et al. 2003. (J. Biol. Chem. 278:15922-15926). This paper also describes the general conditions for a sAC cyclase assay. The specific conditions for the in vitro assay are as follows.
For basal sAC activity, an assay master mixture with sufficient volume for all reactions was prepared containing:
100 U/ml creatine phosphokinase (CPK)
An aliquot of the master mixture was added to the purified human sAC. The assay mixture also included the indicated concentration of KH compound, or an equivalent volume of vehicle (i.e., DMSO) as control. The reaction was started by adding 5 mM ATP (total assay volume=100 μL). The reaction mixture was incubated at 30° C. for 30 minutes and then stopped by adding 100 μl […]. Stimulated assay conditions involve adding 40 mM bicarbonate and 5 mM CaCl2 to the above master mixture.
Cyclic AMP levels were measured in each sample using the Correlate-EIA Direct Cyclic AMP assay kit from Assay Designs as per manufacturers instructions.

[1] = 100 μM of compound, BASAL human sAC in vitro activity, read-out: % Inhibition (100 μM), hsACt-Basal
[2] = 100 μM of compound, stimulated human sAC in vitro activity, read-out: % Inhibition (100 μM), hsACt-Stim.
[3] = BASAL activity of human sAC in vitro (just Mg-ATP, no calcium or bicarbonate), read-out: hsACt-Basal approximate IC50 (or the dose range where the IC50 should lie)
[4] = stimulated activity of human sAC in vitro (calcium and bicarbonate stimulated), read-out: hsACt-Stim. approximate IC50 (or the dose range where the IC50 should lie)
[5] = 100 μM of compound, stimulated human sAC in vitro activity

inhibition at 100 µM [1] | inhibition at 100 µM [2] | IC50 [3] | IC50 [4] | % Inhibition (100 μM), hsACt-Basal (100 μM of compound, BASAL human sAC in vitro activity, 100 µM) | % Inhibition (100 μM), hsACt-Stim. (100 μM of compound, stimulated human sAC in vitro activity, 100 µM) | Activation, printed in column % Inhibition (100 μM), hsACt-Basal (100 μM of compound, BASAL human sAC in vitro activity) | Activation, printed in column % Inhibition (100 μM), hsACt-Stim. [5] | Activation in words, printed in column % Inhibition (100 μM), hsACt-Stim. (@ 100, stimulated human sAC in vitro activity) | Compound
0% | 0% | > 100 µM | > 100 µM |  |  |  |  |  | Cn1c(SCC(=O)N/N=C/c2ccccn2)nc2ccccc21 [KH7.140]
75% | 75% | 1 to 10 µM | 1 to 10 µM | 70% | 70% |  |  |  | Cn1c(SCC(=O)N/N=C/c2cc(Br)ccc2O)nc2ccccc21 [KH7.139]
 |  |  | 0.1 to 1 µM |  |  | Activation 30% | Activation 50% |  | C/C(=N/NC(=O)CSc1nc2ccccc2[nH]1)c1cccnc1 [KH7.116]
40% | 30% | > 100 µM | > 100 µM |  |  |  |  |  | COc1cc(/C=N/NC(=O)CSc2nc3ccccc3[nH]2)cc(OC)c1OC(C)=O [KH7.124]
0% | 0% | > 100 µM | > 100 µM |  |  |  |  |  | O=C(CSc1nc2ccccc2[nH]1)N/N=C/c1cccnc1 [KH7.123]
50% | 40% |  | > 100 µM |  |  |  |  |  | O=C(CSc1nc2ccccc2[nH]1)N/N=C/c1ccc(Cl)c([N+](=O)[O-])c1 [KH7.146]
60% |  | 10 to 100 µM |  |  |  |  |  |  | O=C(CSc1nc2ccccc2[nH]1)N/N=C/c1ccccc1Cl [KH7.133]
80% | 80% | 10 to 100 µM | 10 to 100 µM |  |  |  |  |  | C/C(=N/NC(=O)CSc1nc2ccccc2[nH]1)c1ccc(-c2ccccc2)cc1 [KH7.113]
0% | 0% | > 100 µM | > 100 µM |  |  |  |  |  | O=C(CSc1nc2ccccc2[nH]1)N/N=C/c1cc([N+](=O)[O-])ccc1Cl [KH7.155]
0% |  | > 100 µM | 30 to 100 µM |  |  |  | Activation 100% |  | O=C(CSc1nc2ccccc2[nH]1)N/N=C/c1ccc(Cl)cc1 [KH7.137]
80% | 40% | 10 to 100 µM | > 100 µM |  |  |  |  |  | CCN(CC)c1ccc(/C=N/NC(=O)CSc2nc3ccccc3[nH]2)cc1 [KH7.136]
40% | 50% | > 100 µM | 10 to 100 µM |  |  |  |  |  | O=C(CSc1nc2ccccc2[nH]1)N/N=C/c1cccc2ccccc12 [KH7.126]
0% | 0% | > 100 µM | > 100 µM |  |  |  |  |  | O=C(CSc1nc2ccccc2[nH]1)N/N=C/c1cccc(F)c1 [KH7.153]
50% | 50% |  |  |  |  |  |  |  | O=C(CSc1nc2ccccc2[nH]1)N/N=C/c1c(Cl)cccc1Cl [KH7.130]
0% |  | > 100 µM | 1 to 10 µM |  |  |  |  | Activation @ 100 | Cc1ccc(Cn2c(SCC(=O)N/N=C/c3ccncc3)nc3ccccc32)cc1 [KH7.142]
90% | 85% | 1 µM | 1 µM |  |  |  |  |  | O=C(CSc1nc2ccccc2[nH]1)N/N=C/c1cc(Br)cc(Br)c1O [KH7.149]
30% | 25% | > 100 µM | > 100 µM |  |  |  |  |  | C/C(=N\NC(=O)CSc1nc2ccccc2[nH]1)c1ccc([N+](=O)[O-])cc1 [KH7.138]
70% | 80% | 1 µM | 1 µM |  |  |  |  |  | O=C(CSc1nc2ccccc2n1Cc1ccc(Cl)cc1)N/N=C\c1cc(Br)ccc1O [KH7.144]

inhibition at 100 µM [1] | inhibition at 100 µM [2] | IC50 [3] | IC50 [4] | % Inhibition (100 μM), hsACt-Basal (100 μM of compound, BASAL human sAC in vitro activity, 100 µM) | % Inhibition (100 μM), hsACt-Stim. (100 μM of compound, stimulated human sAC in vitro activity, 100 µM) | Activation, printed in column % Inhibition (100 μM), hsACt-Basal (100 μM of compound, BASAL human sAC in vitro activity) | Activation, printed in column % Inhibition (100 μM), hsACt-Stim. [5] | Activation in words, printed in column % Inhibition (100 μM), hsACt-Stim. (@ 100, stimulated human sAC in vitro activity) | Compound
75% | 75% | 1 µM | 1 µM |  |  |  |  |  | Cc1ccc(Cn2c(SCC(=O)N/N=C/c3cc(Br)ccc3O)nc3ccccc32)cc1 [KH7.143]
50% | 50% |  |  |  |  |  |  |  | O=C(CSc1nc2ccccc2[nH]1)N/N=C/c1cccc(Cl)c1 [KH7.128]
0% | 0% | > 100 µM | > 100 µM |  |  |  |  |  | Cc1ccc(/C=N/NC(=O)CSc2nc3ccccc3[nH]2)cc1 [KH7.134]
100% | 85% | 0.1 to 1 µM | 0.1 to 1 µM |  |  |  |  |  | O=C(CSc1nc2ccccc2[nH]1)N/N=C/c1cc(I)cc(I)c1O [KH7.154]
80% | 80% | 10 to 100 µM | 10 to 100 µM |  |  |  |  |  | C/C(=N/NC(=O)CSc1nc2ccccc2[nH]1)c1ccc(Cl)c(Cl)c1 [KH7.115]
80% | 80% | 1 to 10 µM | 1 µM |  |  |  |  |  | O=C(CSc1nc2ccccc2n1Cc1ccccc1)N/N=C/c1cc(Br)ccc1O [KH7.141]
50% | 50% |  |  |  |  |  |  |  | O=C(CSc1nc2ccccc2[nH]1)N/N=C/c1ccc([N+](=O)[O-])cc1 [KH7.122]
60% | 80% | 10 to 100 µM | 10 to 100 µM |  |  |  |  |  | C/C(=N/NC(=O)CSc1nc2ccccc2[nH]1)c1cccc(Br)c1 [KH7.119]
60% | 60% | 10 to 100 µM | 10 to 100 µM |  |  |  |  |  | O=C(CSc1nc2ccccc2[nH]1)N/N=C/c1ccccc1Br [KH7.131]
90% | 90% | 10 to 100 µM | 10 to 100 µM |  |  |  |  |  | O=C(CSc1nc2ccccc2[nH]1)N/N=C/c1ccccc1I [KH7.121]
0% | 0% | > 100 µM | > 100 µM |  |  |  |  |  | O=C(CSc1nc2ccccc2[nH]1)N/N=C/c1ccccc1C(=O)O [KH7.112]
75% | 50% | 10 to 100 µM | 10 to 100 µM |  |  |  |  |  | COc1ccc(/C=N/NC(=O)CSc2nc3ccccc3[nH]2)cc1Br [KH7.151]
0% | 0% | > 100 µM | > 100 µM |  |  |  |  |  | O=C(CSc1nc2ccccc2[nH]1)N/N=C/c1ccc(C(F)(F)F)cc1 [KH7.150]
10% | 0% | > 100 µM | > 100 µM |  |  |  |  |  | COc1ccc(/C=N/NC(=O)CSc2nc3ccccc3[nH]2)cc1 [KH7.132]
50% | 0% |  | > 100 µM |  |  |  |  |  | CC(C)c1ccc(/C=N/NC(=O)CSc2nc3ccccc3[nH]2)cc1 [KH7.135]
0% | 0% | > 100 µM | > 100 µM |  |  |  |  |  | C/C(=N/NC(=O)CSc1nc2ccccc2[nH]1)c1ccc(F)cc1 [KH7.118]
60% |  | 10 to 100 µM |  |  |  |  |  |  | O=C(CSc1nc2ccccc2[nH]1)N/N=C/c1cc(Br)ccc1F [KH7.152]
0% | 20% | > 100 µM | > 100 µM |  |  |  |  |  | CCOc1ccc(/C=N/NC(=O)CSc2nc3ccccc3[nH]2)cc1OC [KH7.145]
